Measurements reported in patent US20230074545A1, “TREATMENT OF CANCER WITH CDK12/13 INHIBITORS” (Kinnate Biopharma Inc., priority 2019, published 2023).

Tests used:
Experiment in all cases: Radiometric kinase panel
Type in all cases: biochemical
AuroraB = target: T1, AuroraB (Homo sapiens, UniProt Q96GD4)
T1 construct: purchased ProQinase GmbH (Reaction Biology); host or cells: Sf9 insect cells or E. coli (not specified per kinase)
Description: (§1) The compounds 1-5 (see Table 1) were assayed for kinase activity at ProQinase (ProQinase GmbH, Reaction Biology; Freiburg, Germany) using their commercially available radiometric kinase assay services. Briefly, the compounds were provided as solids and were dissolved to 1×10^−03 M/100% DMSO stock solutions on the day of assay. All protein kinases were provided by ProQinase and were expressed in Sf9 insect cells or in E. coli as recombinant GST-fusion proteins or His-tagged proteins, either as full-length or enzymatically active fragments. All kinases were produced from human cDNAs and purified by either GSH-affinity chromatography or immobilized metal. The purity of the protein kinases was examined by SDS-PAGE/Coomassie staining, the identity was checked by mass spectroscopy. A radiometric protein kinase assay (^33PanQinase® Activity Assay) was used for measuring the kinase activity of the protein kinase. All kinase assays were performed in 96-well FlashPlates™ from PerkinElmer (Boston, Mass., USA) in a 50 microliter reaction volume. The reaction cocktail was pipetted in four steps in the following order: 1) 25 microliter of assay buffer (standard buffer/[gamma-^33P]-ATP); 2) 10 microliter of ATP solution (in H2O); 3) 5 microliter of test compound (in 10% DMSO); 4) 10 microliter of enzyme/substrate mixture.
(§2) Compound 4 was analyzed for selectivity against a panel of other kinases at ProQinase using their commercially available radiometric kinase assay services and the methods described in Example 1.

AuroraC = target: T2, AuroraC (Homo sapiens, UniProt Q9UQB9)
T2 construct: either as full-length or enzymatically active fragments; purchased ProQinase GmbH (Reaction Biology)
Description: as §1, §2

CAMK2G = target: T3, CAMK2G (Homo sapiens, UniProt Q13555)
T3 construct: either as full-length or enzymatically active fragments; purchased ProQinase GmbH (Reaction Biology)
Description: as §1, §2

CDC7/DBF4 = target: T4, CDC7/DBF4 (Homo sapiens, UniProt O00311)
T4 construct: purchased ProQinase GmbH (Reaction Biology)
Description: as §1, §2

CK1alpha1 = target: T5, CK1alpha1 (Homo sapiens, UniProt P48729)
T5 construct: either as full-length or enzymatically active fragments; purchased ProQinase GmbH (Reaction Biology); host or cells: Sf9 insect cells or E. coli
T5 sequence (P48729 whole entry, the tested form may be a part): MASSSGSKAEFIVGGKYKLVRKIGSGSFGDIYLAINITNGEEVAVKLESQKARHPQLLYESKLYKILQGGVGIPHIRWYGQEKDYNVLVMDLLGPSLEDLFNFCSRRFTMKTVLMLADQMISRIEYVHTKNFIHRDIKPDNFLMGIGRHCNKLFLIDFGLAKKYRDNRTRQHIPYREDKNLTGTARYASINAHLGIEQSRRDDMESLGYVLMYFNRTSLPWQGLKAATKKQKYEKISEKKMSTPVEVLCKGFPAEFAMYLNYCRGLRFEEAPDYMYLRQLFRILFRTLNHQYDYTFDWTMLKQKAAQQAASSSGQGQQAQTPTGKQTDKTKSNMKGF
Description: as §1, §2

CK1epsilon = target: T6, CK1epsilon (Homo sapiens, UniProt P49674)
T6 construct: either as full-length or enzymatically active fragments; purchased ProQinase GmbH (Reaction Biology)
Description: as §1, §2

DCAMKL2 = target: T7, DCAMKL2 (Homo sapiens, UniProt Q8N568)
T7 construct: purchased ProQinase GmbH (Reaction Biology); host or cells: Sf9 insect cells or E. coli (not specified per kinase)
Description: as §1, §2

DNAPK = target: T8, DNAPK (Homo sapiens, UniProt P78527)
T8 construct: purchased ProQinase GmbH (Reaction Biology); host or cells: Sf9 insect cells or E. coli (not specified per kinase)
Description: as §1, §2

EPHA6 = target: T9, EPHA6 (Homo sapiens, UniProt Q9UF33)
T9 construct: either as full-length or enzymatically active fragments; purchased ProQinase GmbH (Reaction Biology)
Description: as §1, §2

ERBB2 = target: T10, ERBB2 (Homo sapiens, UniProt P04626)
T10 construct: either as full-length or enzymatically active fragments; purchased ProQinase GmbH (Reaction Biology)
Description: as §1, §2

FGFR2 = target: T11, FGFR2 (Homo sapiens, UniProt P21802)
T11 construct: purchased ProQinase GmbH (Reaction Biology); host or cells: Sf9 insect cells or E. coli (not specified per kinase)
Description: as §1, §2

FLT3 = target: T12, FLT3 (Homo sapiens, UniProt P36888)
T12 construct: either as full-length or enzymatically active fragments; purchased ProQinase GmbH (Reaction Biology)
T12 sequence (P36888 27-993): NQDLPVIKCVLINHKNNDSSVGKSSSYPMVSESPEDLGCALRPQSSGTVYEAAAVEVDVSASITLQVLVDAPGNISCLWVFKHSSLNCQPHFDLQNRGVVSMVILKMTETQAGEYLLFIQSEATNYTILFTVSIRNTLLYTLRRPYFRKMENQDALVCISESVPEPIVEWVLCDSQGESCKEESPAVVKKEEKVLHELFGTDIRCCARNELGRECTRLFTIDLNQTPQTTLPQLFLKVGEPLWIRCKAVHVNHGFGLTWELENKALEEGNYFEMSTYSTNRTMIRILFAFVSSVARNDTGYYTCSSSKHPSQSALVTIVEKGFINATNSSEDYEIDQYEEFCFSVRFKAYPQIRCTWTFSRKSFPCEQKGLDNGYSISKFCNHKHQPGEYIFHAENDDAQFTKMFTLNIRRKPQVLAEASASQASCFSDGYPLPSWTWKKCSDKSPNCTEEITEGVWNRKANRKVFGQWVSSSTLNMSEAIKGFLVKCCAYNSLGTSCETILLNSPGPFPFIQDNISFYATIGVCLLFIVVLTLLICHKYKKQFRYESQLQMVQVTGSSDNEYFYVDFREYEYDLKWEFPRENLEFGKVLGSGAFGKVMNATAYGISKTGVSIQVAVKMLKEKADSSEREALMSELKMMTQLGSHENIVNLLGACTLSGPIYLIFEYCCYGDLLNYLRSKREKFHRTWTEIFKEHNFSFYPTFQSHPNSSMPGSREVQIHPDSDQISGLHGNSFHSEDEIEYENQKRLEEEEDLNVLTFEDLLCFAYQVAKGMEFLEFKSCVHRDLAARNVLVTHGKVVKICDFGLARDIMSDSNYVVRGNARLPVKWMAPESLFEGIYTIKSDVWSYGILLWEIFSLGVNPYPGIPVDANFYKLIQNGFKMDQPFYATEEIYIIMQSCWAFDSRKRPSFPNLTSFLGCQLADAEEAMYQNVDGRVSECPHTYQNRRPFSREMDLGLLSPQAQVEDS
Description: as §1, §2

IGF1R = target: T13, IGF1R (Homo sapiens, UniProt P08069)
T13 construct: either as full-length or enzymatically active fragments; purchased ProQinase GmbH (Reaction Biology); host or cells: Sf9 insect cells or E. coli
Description: as §1, §2

IRAK1 = target: T14, IRAK1 (Homo sapiens, UniProt P51617)
T14 construct: either as full-length or enzymatically active fragments; purchased ProQinase GmbH (Reaction Biology)
T14 sequence (P51617 whole entry, the tested form may be a part): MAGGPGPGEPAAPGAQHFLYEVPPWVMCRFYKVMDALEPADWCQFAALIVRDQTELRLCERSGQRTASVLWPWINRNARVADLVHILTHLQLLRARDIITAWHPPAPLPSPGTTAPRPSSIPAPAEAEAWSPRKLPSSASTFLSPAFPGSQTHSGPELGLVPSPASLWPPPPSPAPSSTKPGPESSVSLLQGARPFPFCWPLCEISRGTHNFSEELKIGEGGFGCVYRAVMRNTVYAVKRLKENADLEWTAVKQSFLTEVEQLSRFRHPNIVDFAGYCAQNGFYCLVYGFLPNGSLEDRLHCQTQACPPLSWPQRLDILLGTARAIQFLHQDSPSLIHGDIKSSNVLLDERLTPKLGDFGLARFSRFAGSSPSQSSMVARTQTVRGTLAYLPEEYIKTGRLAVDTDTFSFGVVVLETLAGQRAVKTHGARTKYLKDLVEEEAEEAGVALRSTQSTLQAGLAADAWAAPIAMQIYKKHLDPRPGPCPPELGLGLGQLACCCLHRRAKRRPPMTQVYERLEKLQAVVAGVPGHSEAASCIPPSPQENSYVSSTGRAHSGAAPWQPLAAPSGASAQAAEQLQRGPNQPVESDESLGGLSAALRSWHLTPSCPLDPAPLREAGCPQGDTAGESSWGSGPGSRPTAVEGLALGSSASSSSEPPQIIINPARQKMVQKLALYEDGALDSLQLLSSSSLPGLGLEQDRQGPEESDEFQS
Description: as §1, §2

MAP4K2 = target: T15, MAP4K2 (Homo sapiens, UniProt Q12851)
T15 construct: purchased ProQinase GmbH (Reaction Biology)
T15 sequence (Q12851 whole entry): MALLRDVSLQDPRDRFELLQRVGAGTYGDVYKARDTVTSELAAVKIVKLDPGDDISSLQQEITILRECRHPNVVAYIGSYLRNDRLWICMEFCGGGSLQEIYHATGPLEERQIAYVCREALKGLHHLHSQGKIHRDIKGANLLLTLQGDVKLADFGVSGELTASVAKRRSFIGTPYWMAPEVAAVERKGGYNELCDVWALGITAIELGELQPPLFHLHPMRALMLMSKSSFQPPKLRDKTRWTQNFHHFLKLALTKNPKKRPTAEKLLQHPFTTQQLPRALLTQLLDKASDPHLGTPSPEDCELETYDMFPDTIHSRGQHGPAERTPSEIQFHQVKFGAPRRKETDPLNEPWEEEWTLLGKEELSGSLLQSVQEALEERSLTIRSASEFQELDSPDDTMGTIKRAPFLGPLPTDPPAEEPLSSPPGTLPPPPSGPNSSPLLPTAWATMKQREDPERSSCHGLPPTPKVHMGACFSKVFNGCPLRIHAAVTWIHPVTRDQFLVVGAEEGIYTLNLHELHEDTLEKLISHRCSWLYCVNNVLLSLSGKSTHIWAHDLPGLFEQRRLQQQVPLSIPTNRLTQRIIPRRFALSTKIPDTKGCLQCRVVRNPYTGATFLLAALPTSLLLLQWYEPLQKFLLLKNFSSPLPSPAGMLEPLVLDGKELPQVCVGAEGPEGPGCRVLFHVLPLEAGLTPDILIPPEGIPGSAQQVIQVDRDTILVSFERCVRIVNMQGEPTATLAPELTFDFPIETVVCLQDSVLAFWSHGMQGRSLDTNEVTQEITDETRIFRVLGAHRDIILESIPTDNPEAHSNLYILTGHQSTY
Description: as §1, §2

MAP4K4 = target: T16, MAP4K4 (Homo sapiens, UniProt O95819)
T16 construct: purchased ProQinase GmbH (Reaction Biology)
Description: as §1, §2

MYLK = target: T17, MYLK (Homo sapiens, UniProt Q15746)
T17 construct: either as full-length or enzymatically active fragments; purchased ProQinase GmbH (Reaction Biology)
Description: as §1, §2

MYLK3 = target: T18, MYLK3 (Homo sapiens, UniProt Q32MK0)
T18 construct: either as full-length or enzymatically active fragments; purchased ProQinase GmbH (Reaction Biology)
T18 sequence (Q32MK0 whole entry, the tested form may be a part): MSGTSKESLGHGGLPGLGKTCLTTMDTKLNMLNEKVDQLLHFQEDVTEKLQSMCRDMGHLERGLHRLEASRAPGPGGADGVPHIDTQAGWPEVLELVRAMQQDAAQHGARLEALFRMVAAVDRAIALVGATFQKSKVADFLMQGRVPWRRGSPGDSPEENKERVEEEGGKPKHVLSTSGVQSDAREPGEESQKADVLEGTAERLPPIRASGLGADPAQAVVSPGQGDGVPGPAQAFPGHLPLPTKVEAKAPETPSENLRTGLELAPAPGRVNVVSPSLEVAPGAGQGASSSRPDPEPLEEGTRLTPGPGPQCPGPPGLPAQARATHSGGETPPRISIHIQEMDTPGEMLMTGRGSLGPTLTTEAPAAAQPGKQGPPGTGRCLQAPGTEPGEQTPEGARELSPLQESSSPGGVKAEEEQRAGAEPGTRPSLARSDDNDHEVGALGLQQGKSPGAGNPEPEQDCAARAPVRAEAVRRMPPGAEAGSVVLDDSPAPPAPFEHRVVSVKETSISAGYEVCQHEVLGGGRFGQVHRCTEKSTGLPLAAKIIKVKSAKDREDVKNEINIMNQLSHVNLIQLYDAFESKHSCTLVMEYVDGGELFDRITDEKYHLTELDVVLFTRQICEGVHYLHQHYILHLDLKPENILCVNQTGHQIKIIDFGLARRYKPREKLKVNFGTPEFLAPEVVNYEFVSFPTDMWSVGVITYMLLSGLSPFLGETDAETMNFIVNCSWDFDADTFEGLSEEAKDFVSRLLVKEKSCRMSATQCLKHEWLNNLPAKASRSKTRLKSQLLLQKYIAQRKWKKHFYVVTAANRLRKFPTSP
Description: as §1, §2

NEK11 = target: T19, NEK11 (Homo sapiens, UniProt Q8NG66)
T19 construct: either as full-length or enzymatically active fragments; purchased ProQinase GmbH (Reaction Biology)
Description: as §1, §2

NEK3 = target: T20, NEK3 (Homo sapiens, UniProt P51956)
T20 construct: either as full-length or enzymatically active fragments; purchased ProQinase GmbH (Reaction Biology)
Description: as §1, §2

NEK6 = target: T21, NEK6 (Homo sapiens, UniProt Q9HC98)
T21 construct: either as full-length or enzymatically active fragments; purchased ProQinase GmbH (Reaction Biology)
Description: as §1, §2

PIM1 = target: T22, PIM1 (Homo sapiens, UniProt P11309)
T22 construct: either as full-length or enzymatically active fragments; purchased ProQinase GmbH (Reaction Biology)
T22 sequence (P11309 whole entry, the tested form may be a part): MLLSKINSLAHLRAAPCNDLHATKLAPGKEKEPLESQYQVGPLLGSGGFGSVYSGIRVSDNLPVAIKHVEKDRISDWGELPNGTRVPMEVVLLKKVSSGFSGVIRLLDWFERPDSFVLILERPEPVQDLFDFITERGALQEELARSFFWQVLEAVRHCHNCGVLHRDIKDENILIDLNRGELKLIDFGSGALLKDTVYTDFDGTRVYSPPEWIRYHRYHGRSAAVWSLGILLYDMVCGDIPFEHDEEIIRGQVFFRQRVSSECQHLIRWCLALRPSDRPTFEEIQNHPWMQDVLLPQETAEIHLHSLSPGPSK
Description: as §1, §2

PIM2 = target: T23, PIM2 (Homo sapiens, UniProt Q9P1W9)
T23 construct: either as full-length or enzymatically active fragments; purchased ProQinase GmbH (Reaction Biology)
Description: as §1, §2

PKCeta = target: T24, PKCeta (Homo sapiens, UniProt P24723)
T24 construct: either as full-length or enzymatically active fragments; purchased ProQinase GmbH (Reaction Biology); host or cells: Sf9 insect cells or E. coli
Description: as §1, §2

PKN3 = target: T25, PKN3 (Homo sapiens, UniProt Q6P5Z2)
T25 construct: purchased ProQinase GmbH (Reaction Biology)
T25 sequence (Q6P5Z2 whole entry): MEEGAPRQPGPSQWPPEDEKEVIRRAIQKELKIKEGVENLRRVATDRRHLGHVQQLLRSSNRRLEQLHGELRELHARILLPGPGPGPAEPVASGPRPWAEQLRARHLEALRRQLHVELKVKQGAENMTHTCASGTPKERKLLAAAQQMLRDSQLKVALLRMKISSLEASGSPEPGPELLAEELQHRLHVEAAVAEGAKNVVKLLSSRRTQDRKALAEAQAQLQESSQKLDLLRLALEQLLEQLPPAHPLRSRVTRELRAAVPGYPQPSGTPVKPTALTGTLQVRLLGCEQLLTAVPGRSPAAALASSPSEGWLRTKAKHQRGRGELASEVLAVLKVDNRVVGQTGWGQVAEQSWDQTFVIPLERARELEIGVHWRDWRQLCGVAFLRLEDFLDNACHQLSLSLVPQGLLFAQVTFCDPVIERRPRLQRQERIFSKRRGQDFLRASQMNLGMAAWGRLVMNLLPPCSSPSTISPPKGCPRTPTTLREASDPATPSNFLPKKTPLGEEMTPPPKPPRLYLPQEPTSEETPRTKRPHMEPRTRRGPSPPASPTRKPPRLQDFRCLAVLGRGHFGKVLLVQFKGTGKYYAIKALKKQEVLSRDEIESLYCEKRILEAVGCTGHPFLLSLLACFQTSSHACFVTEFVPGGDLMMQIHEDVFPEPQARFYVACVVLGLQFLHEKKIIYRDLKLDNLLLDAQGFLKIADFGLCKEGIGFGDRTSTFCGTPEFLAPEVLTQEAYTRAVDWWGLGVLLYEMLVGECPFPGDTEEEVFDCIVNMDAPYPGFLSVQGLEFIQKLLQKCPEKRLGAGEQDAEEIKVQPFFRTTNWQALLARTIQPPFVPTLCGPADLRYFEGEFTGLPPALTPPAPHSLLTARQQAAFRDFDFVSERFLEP
Description: as §1, §2

ROCK2 = target: T26, ROCK2 (Homo sapiens, UniProt O75116)
T26 construct: either as full-length or enzymatically active fragments; purchased ProQinase GmbH (Reaction Biology)
Description: as §1, §2

SAK = target: T27, SAK (Homo sapiens, UniProt O00444)
T27 construct: either as full-length or enzymatically active fragments; purchased ProQinase GmbH (Reaction Biology)
Description: as §1, §2

SIK3 = target: T28, SIK3 (Homo sapiens, UniProt Q9Y2K2)
T28 construct: either as full-length or enzymatically active fragments; purchased ProQinase GmbH (Reaction Biology)
Description: as §1, §2

TAOK3 = target: T29, TAOK3 (Homo sapiens, UniProt Q9H2K8)
T29 construct: either as full-length or enzymatically active fragments; purchased ProQinase GmbH (Reaction Biology)
Description: as §1, §2

VEGFR1 = target: T30, VEGFR1 (Homo sapiens, UniProt P17948)
T30 construct: either as full-length or enzymatically active fragments; purchased ProQinase GmbH (Reaction Biology); host or cells: Sf9 insect cells or E. coli (not specified per kinase)
Description: as §1, §2

ZAK = target: T31, ZAK (Homo sapiens, UniProt Q9NYL2)
T31 construct: either as full-length or enzymatically active fragments; purchased ProQinase GmbH (Reaction Biology)
Description: as §1, §2

With `C=CC(=O)Nc1ccc(C(=O)N2CC[C@@H](Nc3ncc(C#N)cn3)C2)cc1` [Compound 4, (R)-N-(4-(3-((5-cyanopyrimidin-2-yl)amino)pyrrolidine-1-carbonyl)phenyl)acrylamide] the inhibition at 1 µM (AuroraB) was 1%, the inhibition at 1 µM (AuroraC) was 16% and the inhibition at 1 µM (CAMK2G) was 5%. For the same molecule, the inhibition at 1 µM (CDC7/DBF4) was -2%, the inhibition at 1 µM (CK1alpha1) was 12% and the inhibition at 1 µM (CK1epsilon) was -13%. For the same molecule, the inhibition at 1 µM (DCAMKL2) was 0%, the inhibition at 1 µM (DNAPK) was 2% and the inhibition at 1 µM (EPHA6) was 5%. It also gave an inhibition at 1 µM (ERBB2) of 5%, an inhibition at 1 µM (FGFR2) of 0% and an inhibition at 1 µM (FLT3) of -8%. It also gave an inhibition at 1 µM (IGF1R) of -23%, an inhibition at 1 µM (IRAK1) of 2% and an inhibition at 1 µM (MAP4K2) of -1%. The inhibition at 1 µM (MAP4K4) was 0%, the inhibition at 1 µM (MYLK) was 3% and the inhibition at 1 µM (MYLK3) was 4%. The inhibition at 1 µM (NEK11) was -5%, the inhibition at 1 µM (NEK3) was 6% and the inhibition at 1 µM (NEK6) was 4%. The inhibition at 1 µM (PIM1) was 3%, the inhibition at 1 µM (PIM2) was 3% and the inhibition at 1 µM (PKCeta) was -14%. The inhibition at 1 µM (PKN3) was -2%, the inhibition at 1 µM (ROCK2) was 19% and the inhibition at 1 µM (SAK) was -11%. For the same molecule, the inhibition at 1 µM (SIK3) was 8%, the inhibition at 1 µM (TAOK3) was 6% and the inhibition at 1 µM (VEGFR1) was 8%. It also gave an inhibition at 1 µM (ZAK) of -4%.
